Earlier results as cited in patent US20220225611A1, “NON-NATURAL INSECT PHEROMONE BLEND COMPOSITIONS” (Provivi, Inc., priority 2019, published 2022).

Key:
C. suppressalis = settings: Chen et al. (2018)
S. incertulas = settings: Cork & Souza (1996)

Row | SMILES | effect on attractiveness of a pheromone mixture (C. suppressalis) | effect of presence in a pheromone blend on mating disruption (S. incertulas)
1 | CCCCCCCC/C=C\CCCCCCCC=O [Z9-18Ald, (Z)-9-Octadecenal] | reduces the attractiveness | –
2 | CCCC/C=C\CCCCCCCCCCCC=O [Z13-18Ald, (Z)-13-Octadecenal] | – | not be produce increased mating disruption
